pEC50: −log10 of the molar value. Read-outs that look alike come from different tables or passages of the source.
What was measured:
[1] = test system: wild-type Sprague Dawley rats; experiment: DC-Maximal electroshock seizure assay (DC-MES); type: in vivo, rat
Method: (§1) Phenytoin was formulated in physiologic saline and was administered intraperitoneally (i.p.) using a 25-gauge needle at a dose volume of 10 mL/kg. All compounds were administered 2 hr prior to electrical seizure induction for all seizure models employed in this study.
The maximal electroshock seizure (MES) assay has been extensively used in the search for anticonvulsant substances ([Löscher et al., 1991]; [Piredda et al., 1985]; [White et al., 1995]). The MES assay is sensitive to nonselective NaV inhibitors. It is considered a model for generalized tonic-clonic (GTC) seizures and provides an assessment of seizure spread. Briefly, an electroshock of direct current (DC) was delivered by corneal electrodes (Electro Convulsive Therapy Unit 57,800 from Ugo Basile). The parameters of stimulation were different between mice and rats. In CF1 mice aged 9–12 weeks, a direct current of 50 mA (60 Hz) was delivered for 0.2 s (pulse width of 0.5ms), whereas in Sprague Dawley (SD) rats aged 5–6 weeks, a direct current of 150 mA (60 Hz) was delivered for 0.3 s (pulse width of 0.5ms). Immediately prior to the electroshock, the animals’ eyes were anesthetized with a drop of Alcaine (0.5% proparacaine hydrochloride).
An animal was considered protected in the assay in the absence of a GTC with hindlimb extension and is then scored ‘0’. An animal displaying GTC with hindlimb extension was considered not protected and is then scored ‘1’. The experimenter scoring the seizure behavior was blinded to the treatment.

[2] = Bioanalytical assessment of plasma and brain concentrations after rat DC-MES assay; type: in vivo; details: rat, oral, Rat DC-MES
Scn8a^N1768D/+ mice = experiment: Modified 6 Hz psychomotor seizure assay; type: in vivo, mouse
Method: as §1
Scn8a^N1768D/+heterozygous mice were tested at 5 weeks of age (p35). The modified 6 Hz seizure assay in Scn8a^N1768D/+heterozygous mice was adapted from the traditional 6 Hz assay psychomotor seizure assay to provide a measure of in vivo on target (NaV1.6 mediated) efficacy ([Barton et al., 2001]). The modified assay used a low frequency (6 Hz) but long-duration stimulation (3 s) to induce seizures. […] An electroshock (6 Hz, 12 mA) was delivered for 3 s (at 0.3-ms pulse interval) by corneal electrodes (Electro Convulsive Therapy Unit 57,800 from Ugo Basile). Immediately prior to the electroshock, the animals’ eyes were anesthetized with a drop of Alcaine (0.5% proparacaine hydrochloride).
An animal was considered protected in the assay upon prevention of GTC with hindlimb extension and was then scored ‘0’. An animal displaying GTC with hindlimb extension was considered not protected and is then scored ‘1’. The experimenter scoring the seizure behavior was blinded to the treatment.

NC(=O)N1c2ccccc2C=Cc2ccccc21 [carbamazepine, Carbamazepine, reference compound]
Rat DC-MES Fraction of animals seizing ([1]; Study18058, 10 mg/kg): 0.857
Rat DC-MES Fraction of animals seizing ([1]; Study18058, 20 mg/kg): 0.714
Rat DC-MES Fraction of animals seizing ([1]; Study18068, 30 mg/kg): 0.571
Rat DC-MES Fraction of animals seizing ([1]; Study18068, 100 mg/kg): 0.428
Rat DC-MES Fraction of animals seizing ([1]; Study18085, 300 mg/kg): 0.285
pEC50 ([1]; WT rat DC-MES (oral; phenytoin i.p.), read-out: plasma EC50): 4.52
pEC50 ([1]; WT rat DC-MES, 2 hr post dose (oral; phenytoin i.p.), read-out: brain EC50): 4.44
concentration at 2 h ([2]; brain, 3 mg/kg, Study18058, 3 mg/kg, read-out: Mean [Brain]): 0.979 µM
concentration at 2 h ([2]; brain, 10 mg/kg, Study18058, 10 mg/kg, read-out: Mean [Brain]): 4.24 µM
concentration at 2 h ([2]; brain, 20 mg/kg, Study18058, 20 mg/kg, read-out: Mean [Brain]): 11 µM
concentration at 2 h ([2]; brain, 30 mg/kg, Study18068, 30 mg/kg, read-out: Mean [Brain]): 30.4 µM
concentration at 2 h ([2]; brain, 100 mg/kg, Study18068, 100 mg/kg, read-out: Mean [Brain]): 55.5 µM
concentration at 2 h ([2]; brain, 300 mg/kg, Study18085, 300 mg/kg, read-out: Mean [Brain]): 79.9 µM
concentration at 2 h ([2]; plasma, 3 mg/kg, Study18058, 3 mg/kg, read-out: Mean [Palsma]): 0.966 µM
concentration at 2 h ([2]; plasma, 10 mg/kg, Study18058, 10 mg/kg, read-out: Mean [Palsma]): 4.27 µM
concentration at 2 h ([2]; plasma, 20 mg/kg, Study18058, 20 mg/kg, read-out: Mean [Palsma]): 11.3 µM
concentration at 2 h ([2]; plasma, 30 mg/kg, Study18068, 30 mg/kg, read-out: Mean [Palsma]): 24 µM
concentration at 2 h ([2]; plasma, 100 mg/kg, Study18068, 100 mg/kg, read-out: Mean [Palsma]): 42.7 µM
concentration at 2 h ([2]; plasma, 300 mg/kg, Study18085, 300 mg/kg, read-out: Mean [Palsma]): 65.9 µM
pEC50 (Scn8a^N1768D/+ mice; Mus musculus, Scn8a^N1768D/+ 6 Hz model, 2 hr post dose (oral; phenytoin i.p.), read-out: brain EC50): 5.03
SCN8A mouse 6HZ Fraction of animals seizing (Scn8a^N1768D/+ mice; Study15064, 3 mg/kg): 0.5
SCN8A mouse 6HZ Fraction of animals seizing (Scn8a^N1768D/+ mice; Study15064, 10 mg/kg): 0.75
SCN8A mouse 6HZ Fraction of animals seizing (Scn8a^N1768D/+ mice; Study16152, 3 mg/kg): 0.75
SCN8A mouse 6HZ Fraction of animals seizing (Scn8a^N1768D/+ mice; Study16152, 10 mg/kg): 0.667
SCN8A mouse 6HZ Fraction of animals seizing (Scn8a^N1768D/+ mice; Study16152, 30 mg/kg): 0
SCN8A mouse 6HZ Fraction of animals seizing (Scn8a^N1768D/+ mice; Study16162, 3 mg/kg): 0.8
SCN8A mouse 6HZ Fraction of animals seizing (Scn8a^N1768D/+ mice; Study16162, 10 mg/kg): 0.4
SCN8A mouse 6HZ Fraction of animals seizing (Scn8a^N1768D/+ mice; Study16162, 100 mg/kg): 0

— paper PMC8903829 (eLife, 2022)
